# Experiments:
# [1] = tested on: CYP2B dependent pentoxyresorufin O-depentylation activity; test: CYP2B dependent PROD (pentoxyresorufin O-depentylation activity) in hepatocytes (Example 6); format: cell-based, rat; conditions: PB and control siRNA (Cont) treatment; 72 hours after siRNA
# Method: Then, the culture medium is replaced with 2 mL of William's culture medium containing 7 μM of 7-pentoxyresorufin and 7 μM of dicumarol. The culture medium is incubated at 37° C. for 4 hours, and then the culture medium is recovered. The cells are mixed with 1000 U of β-glucronidase (bovine liver-derived) and 50 mM of sodium acetate solution (pH 5), which is left at 37° C. for 3 hours. Measurement of pentoxyresorufin O-depentylation activity is performed by measuring the amount of fluorescence per unit solution. Further, the measurement is carried out at an excitation wavelength of 530 nm and a fluorescence wavelength of 585 nm using a fluorophotometer (F-4010, manufactured by Hitachi). In evaluation of the results, the total amount of protein in the cells in which the substrate was treated is measured by the Protein assay kit (Bio-Rad) and the production amount of resorufin per unit protein (amount of pentoxyresorufin O-depentylation) is calculated on the basis of the calibration curve of resorufin. […] As a result, pentoxyresorufin O-depentylation activity is enhanced by PB and control siRNA (Cont) treatment as compared to the case of the untreated cells.
# liver [2] = test: Liver wet weight in rats (Example 10); format: in vivo, rat; conditions: group treated with PB and control siRNA (Cont)
# Method: (§1) The wet weight of the liver in the rats to which siRNA (CAR) or control siRNA (Cont) was administered by the methods described in (1) to (3) of Example 2 is measured by the method described in (5) of Example 2. As a result, the liver weight is increased in the group treated with PB and control siRNA (Cont) as compared to the case of the untreated animal group.
# liver [3] = test: Centrilobular cell hypertrophy, histopathological examination of the liver (Example 11); format: in vivo, rat; conditions: rats; group treated with PB and control siRNA (Cont)
# Method: as §1, with “Histopathological examination” for “The wet weight”, “performed” for “measured”, “centrilobular cell hypertrophy” for “the liver weight”
# CYP2B1 mRNA = test: CYP2B1 gene expression in PB-treated primary hepatocyte cultured cells (Example 5 (3))
smiles,measurement,setting,value
"CCC1(c2ccccc2)C(=O)NC(=O)NC1=O [PB, Phenobarbital]",pentoxyresorufin O-depentylation activity as compared to the untreated cells,[1],enhanced
same,liver weight as compared to the untreated animal group,liver [2],increased
same,centrilobular cell hypertrophy as compared to the untreated animal group,liver [3],increased
same,CYP2B1 mRNA expression increase compared to cells untreated with PB,CYP2B1 mRNA; cells treated with PB (50 nM) and control siRNA(Cont),about fivefold
same,CYP2B1 expression increase by PB treatment compared to cells untreated with compound,"CYP2B1 mRNA; cells which inhibited CAR (siRNA(CAR)), PB 50 nM",about twofold

# — patent publication US7816338B2, “Compositions and methods for inhibiting car gene expression by RNA interference” (Sumitomo Chemical Company, Limited, priority 2007, dated 2010)
